Measured values published in publication PMC5823845 (Bioorganic & Medicinal Chemistry, 2018).

Experiments:
human RXR α = molecular target: T1, human RXR α (Homo sapiens, UniProt P19793); assay: Retinoid X Receptor radioligand binding assay, [3H] 9-cis-retinoic acid; conditions: human recombinant receptor
T1 construct: Panlabs Eurofins Pharma Discovery Services (CRO)
T1 sequence (P19793 1-462): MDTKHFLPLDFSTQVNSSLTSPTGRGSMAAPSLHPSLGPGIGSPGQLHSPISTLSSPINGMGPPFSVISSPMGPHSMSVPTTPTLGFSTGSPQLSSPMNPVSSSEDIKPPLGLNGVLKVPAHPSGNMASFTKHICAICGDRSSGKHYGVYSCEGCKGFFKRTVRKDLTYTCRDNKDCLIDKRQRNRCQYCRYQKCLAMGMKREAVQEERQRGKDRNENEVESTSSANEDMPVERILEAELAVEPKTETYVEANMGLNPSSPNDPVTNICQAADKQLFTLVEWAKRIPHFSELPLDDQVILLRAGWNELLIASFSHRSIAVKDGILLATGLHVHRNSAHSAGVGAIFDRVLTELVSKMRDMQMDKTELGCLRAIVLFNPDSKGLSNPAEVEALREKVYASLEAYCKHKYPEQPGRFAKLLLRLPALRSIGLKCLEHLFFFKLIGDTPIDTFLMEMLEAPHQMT
Method: (§1) [22] The Retinoid X Receptor RXRα and RXRβ radioligand binding assays using [^3H] 9-cis-retinoic acid and the respective human recombinant receptors, were carried out by the CRO Panlabs Eurofins Pharma Discovery Services UK Limited, Gemini Crescent, Dundee Technology Park, Dundee, DD2 1SW.

human RXR β = molecular target: T2, human RXR β (Homo sapiens, UniProt P28702); assay: as above; conditions: human recombinant receptor
T2 construct: Panlabs Eurofins Pharma Discovery Services (CRO)
T2 sequence (P28702 1-533): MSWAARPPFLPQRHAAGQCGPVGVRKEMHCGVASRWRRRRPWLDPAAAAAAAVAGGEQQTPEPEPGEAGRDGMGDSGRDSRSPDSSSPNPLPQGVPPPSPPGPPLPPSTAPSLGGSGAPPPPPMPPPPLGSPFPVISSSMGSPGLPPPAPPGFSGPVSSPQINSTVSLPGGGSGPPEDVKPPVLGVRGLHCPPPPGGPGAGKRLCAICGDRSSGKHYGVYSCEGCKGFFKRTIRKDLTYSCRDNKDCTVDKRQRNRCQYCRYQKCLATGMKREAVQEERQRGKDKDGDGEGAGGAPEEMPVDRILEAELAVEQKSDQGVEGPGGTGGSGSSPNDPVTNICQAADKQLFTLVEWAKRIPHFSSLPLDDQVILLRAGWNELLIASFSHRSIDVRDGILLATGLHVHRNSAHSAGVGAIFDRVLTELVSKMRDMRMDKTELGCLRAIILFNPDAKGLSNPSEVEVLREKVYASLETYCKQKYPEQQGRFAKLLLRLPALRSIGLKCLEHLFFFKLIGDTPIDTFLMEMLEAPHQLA
Method: as §1

CHO-K1 cells = assay: In vitro micronucleus test; type: cell-based; conditions: presence and absence of S9
From the text: Fluorescent imaging was used to obtain the results in the micronucleus test.

Compound: CCOc1c(Cl)cc(C(=O)Nc2ccc(C(=O)O)c(C)c2)cc1OC(C)C [Compound 56, 4-(3-Chloro-4-ethoxy-5-isopropoxybenzamido)-2-methylbenzoic acid]
- IC50 (human RXR α): > 10 µM
- IC50 (human RXR β): > 10 µM
- in vitro micronucleus test (CHO-K1 cells): negative
